Where two headings read alike, the source gives them in different places.

Assay type in all cases: in vivo
Test [1] deals with Cabbage Looper (Trichoplusia ni, TRIPNI). Description: Bioassays on Cabbage Looper (CL), 128-well diet tray assay. Particulars: Trichoplusia ni. A digest of the protocol: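 Diet tray, 2nd instar, 1–5 larvae/well; 50 μg/cm^2 compound surface-applied (acetone:water 90:10), dried; 8 wells/treatment; 25° C, 14:10 L:D, 5–7 d; % mortality, mean of 8 wells.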
For test [2], the system named is Beet Armyworm (Spodoptera exigua, LAPHEG). Kind of test: Bioassays on Beet Armyworm (BAW), 128-well diet tray assay. Particulars: Spodoptera exigua. A digest of the protocol:
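One to five second-instar larvae per well on artificial diet surface-treated with 50 μg/cm^2 test molecule (applied in 90:10 acetone-water, dried), eight wells per compound. Trays held vented at 25° C., 14:10 light-dark for five to seven days; percent mortality averaged over the eight wells.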

Test [3] relates to Yellow Fever Mosquito (Aedes aegypti, AEDSAE). As to conditions: for YFM rating: Table ABC / ABC-DP rating. The gist of the method:
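Compounds from DMSO master plates (4000 ppm stock) diluted in 90:10 water/acetone, then dispensed into six replicate plates and infested with ~1-day-old Aedes aegypti larvae in liver-powder water. Held covered at room temperature for 3 days; each well scored for larval mortality and graded on a rating scale.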

For test [4], the system named is Green Peach Aphid (Myzus persicae, MYZUPE). Kind of test: Bioassays on Green Peach Aphid (GPA), foliar spray on cabbage seedlings. Particulars: 72 h. Here is the method:
Certain molecules disclosed in this document were tested against GPA using procedures described in the following example. In the reporting of the results, the “GPA & YFM Rating Table” was used (See Table Section).
Cabbage seedlings grown in 3-inch pots, with 2-3 small (3-5 cm) true leaves, were used as test substrate. The seedlings were infested with 20-50 GPA (wingless adult and nymph stages) one day prior to chemical application. Four pots with individual seedlings were used for each treatment. Test molecules (2 mg) were dissolved in 2 mL of acetone/methanol (1:1) solvent, forming stock solutions of 1000 ppm test molecule. The stock solutions were diluted 5× with 0.025% Tween 20 in water to obtain the solution at 200 ppm test molecule. A hand-held aspirator-type sprayer was used for spraying a solution to both sides of […] leaves until runoff. Reference plants (solvent check) were sprayed with the diluent only containing 20% by volume of acetone/methanol (1:1) solvent. Treated plants were held in a holding room for three days at approximately 25° C. and ambient relative humidity (RH) prior to grading. Evaluation was conducted by counting the number of live aphids per plant under a microscope. Percent control was measured using Abbott's correction formula (W. S. Abbott, “A Method of Computing the Effectiveness of an Insecticide” J. Econ. Entomol. 18 (1925), pp. 265-267) as follows. Corrected % Control=100*(X−Y)/X where X=No. of live aphids on solvent check plants and Y=No. of live aphids on treated plants. The results are indicated in the table entitled “Table ABC: Biological Results” (See Table Section).

Where [5] appears, read: Cabbage Looper, rating class, read-out: CL.
[6] abbreviates: Beet Armyworm, rating class, read-out: BAW.
Where [7] appears, read: Yellow Fever Mosquito, rating class.
The mark [8] stands for this setting: Green Peach Aphid, rating class, read-out: GPA.
Where [9] appears, read: Cabbage Looper, Table ABC / ABC-DP rating, read-out: CL rating.
Setting [10] is: Beet Armyworm, Table ABC / ABC-DP rating, read-out: BAW rating.
The mark [11] stands for this setting: Green Peach Aphid, Table ABC / ABC-DP rating, read-out: GPA rating.
The mark [12] stands for this setting: Table ABC: Biological Results, species CL, read-out: CL.
Setting [13] is: Table ABC: Biological Results, species BAW, read-out: BAW.
[14] abbreviates: Table ABC: Biological Results, species YFM.
[15] abbreviates: Table ABC: Biological Results, species GPA, read-out: GPA.

For `O=C(Nc1ccc(F)c(NC(=O)C(F)(F)F)c1F)c1cc(NC(=O)[C@H]2[C@H](c3ccc(F)c(C(F)(F)F)c3)C2(Cl)Cl)ccc1F` [F1529, 5-((1R,3R)-2,2-Dichloro-3-(4-fluoro-3-(trifluoromethyl)phenyl)cyclopropane-1-carboxamido)-N-(2,4-difluoro-3-(2,2,2-trifluoroacetamido)phenyl)-2-fluorobenzamide], the pest or weed control at 50 µg/cm2 in test [1] (setting [5]) and in test [2] (setting [6]) was 50 to 100% each time. Also, in test [3] (setting [7]), the YFM result is “A (80–100)”. In addition, the pest or weed control at 200 µg/mL in test [4] (setting [8]) lay in the range of 0 to 80%.

Turning to `CCC(=O)Nc1c(F)ccc(NC(=O)c2cc(NC(=O)[C@H]3[C@H](c4ccc(F)c(Cl)c4)C3(Cl)Cl)ccc2Cl)c1F` [F1704, 2-Chloro-5-((1R,3R)-2,2-dichloro-3-(3-chloro-4-fluorophenyl)cyclopropane-1-carboxamido)-N-(2,4-difluoro-3-propionamidophenyl)benzamide], the pest or weed control at 50 µg/cm2 in test [1] (setting [5]) and in test [2] (setting [6]) was 50 to 100% throughout. The YFM entry in test [3] (setting [7]) is “A (80–100)”. Also, in test [4] (setting [8]), the pest or weed control at 200 µg/mL lay in the range of 80 to 100%.

`O=C(Nc1ccc(F)c(NC(=O)C(F)(F)C(F)F)c1F)c1cc(NC(=O)[C@H]2[C@H](c3ccc(F)c(Cl)c3)C2(Cl)Cl)ccc1Cl` [F1703, 2-Chloro-5-((1R,3R)-2,2-dichloro-3-(3-chloro-4-fluorophenyl)cyclopropane-1-carboxamido)-N-(2,4-difluoro-3-(2,2,3,3-tetrafluoropropanamido)phenyl)benzamide]: the pest or weed control at 50 µg/cm2 in test [1] (setting [5]) and in test [2] (setting [6]) was 50 to 100% in each case. Moreover, the YFM entry in test [3] (setting [7]) is listed as “A (80–100)”. Also, the pest or weed control at 200 µg/mL in test [4] (setting [8]) fell in the range of 80 to 100%.

In the case of `CCCNC(=O)c1c(F)ccc(NC(=O)[C@H]2[C@H](c3ccc(F)c(Cl)c3)C2(Cl)Cl)c1F` (relative stereo) [F2021, trans-3-(2,2-Dichloro-3-(3-chloro-4-fluorophenyl)cyclopropane-1-carboxamido)-2,6-difluoro-N-propylbenzamide], the pest or weed control at 50 µg/cm2 in test [1] (setting [9]) and in test [2] (setting [10]) was 50 to 100% throughout. In test [3] (Yellow Fever Mosquito), the YFM rating entry is “A (80–100)”. For the same molecule, in test [4] (setting [11]), the pest or weed control at 200 µg/mL was 80 to 100%.

For the molecule `CC(=O)Nc1ccc(F)c(NC(=O)c2cc(NC(=O)[C@H]3[C@H](c4cc(Cl)cc(Cl)c4)C3(Cl)Cl)ccc2Cl)c1` (relative stereo) [F1635, trans-N-(5-Acetamido-2-fluorophenyl)-2-chloro-5-(2,2-dichloro-3-(3,5-dichlorophenyl)cyclopropane-1-carboxamido)benzamide], the pest or weed control at 50 µg/cm2 in test [1] (setting [5]) and in test [2] (setting [6]) was 50 to 100% in each case. For the same molecule, the YFM entry in test [3] (setting [7]) was “A (80–100)”. In test [4] (setting [8]), the pest or weed control at 200 µg/mL is 0 to 80%.

Turning to `O=C(NCCF)c1c(Cl)ccc(NC(=O)[C@H]2[C@H](c3ccc(F)c(Cl)c3)C2(Cl)Cl)c1Cl` (relative stereo) [F2025, trans-2,6-Dichloro-3-(2,2-dichloro-3-(3-chloro-4-fluorophenyl)cyclopropane-1-carboxamido)-N-(2-fluoroethyl)benzamide], the pest or weed control at 50 µg/cm2 in test [1] (setting [9]) and in test [2] (setting [10]) was 50 to 100% in each case. Also, the YFM rating result in test [3] (Yellow Fever Mosquito) is recorded as “A (80–100)”. In test [4] (setting [11]), the pest or weed control at 200 µg/mL fell in the range of 0 to 80%.

`CCC(=O)Nc1c(F)ccc(NC(=O)c2cc(NC(=O)[C@H]3[C@H](c4ccc(F)c(C(F)(F)F)c4)C3(Cl)Cl)ccc2Cl)c1F` [F1371, 2-Chloro-5-((1R,3R)-2,2-dichloro-3-(4-fluoro-3-(trifluoromethyl)phenyl)cyclopropane-1-carboxamido)-N-(2,4-difluoro-3-propionamidophenyl)benzamide]: the pest or weed control at 50 µg/cm2 in test [1] (setting [12]) and in test [2] (setting [13]) was 50 to 100% throughout. In addition, the YFM entry in test [3] (setting [14]) is listed as “A (80–100)”. Also, the pest or weed control at 200 µg/mL in test [4] (setting [15]) fell in the range of 0 to 80%.

Regarding `O=C(Nc1ccc(F)c(NC(=O)C(F)(F)Cl)c1F)c1cc(NC(=O)[C@H]2[C@H](c3ccc(F)c(Cl)c3)C2(Cl)Cl)ccc1Cl` [F1697, 2-Chloro-N-(3-(2-chloro-2,2-difluoroacetamido)-2,4-difluorophenyl)-5-((1R,3R)-2,2-dichloro-3-(3-chloro-4-fluorophenyl)cyclopropane-1-carboxamido)benzamide], the pest or weed control at 50 µg/cm2 in test [1] (setting [5]) and in test [2] (setting [6]) was 50 to 100% throughout. For the same molecule, the YFM result in test [3] (setting [7]) is on record as “A (80–100)”. Besides, the pest or weed control at 200 µg/mL in test [4] (setting [8]) is 80 to 100%.

With `CC(=O)Nc1c(F)ccc(NC(=O)c2cc(NC(=O)[C@H]3[C@H](c4cccc(C(F)(F)F)c4)C3(Cl)Cl)ccc2Cl)c1F` [F1678, N-(3-Acetamido-2,4-difluorophenyl)-2-chloro-5-((1R,3R)-2,2-dichloro-3-(3-(trifluoromethyl)phenyl)cyclopropane-1-carboxamido)benzamide], the pest or weed control at 50 µg/cm2 in test [1] (setting [5]) and in test [2] (setting [6]) was 50 to 100% throughout. In test [3] (setting [7]), the YFM result is given as “B (More than 0 – Less than 80)”. For the same molecule, the pest or weed control at 200 µg/mL in test [4] (setting [8]) lay within 80 to 100%.

Take `O=C(Nc1cc(NC(=O)C(F)F)c(F)cc1F)c1cc(NC(=O)[C@H]2[C@H](c3ccc(Cl)c(Cl)c3)C2(Cl)Cl)ccc1Cl` [F1242, 2-Chloro-5-((1R,3R)-2,2-dichloro-3-(3,4-dichlorophenyl)cyclopropane-1-carboxamido)-N-(5-(2,2-difluoroacetamido)-2,4-difluorophenyl)benzamide]: the pest or weed control at 50 µg/cm2 in test [1] (setting [12]) and in test [2] (setting [13]) was 50 to 100% in each case. Moreover, the YFM result in test [3] (setting [14]) is “A (80–100)”. Also, the pest or weed control at 200 µg/mL in test [4] (setting [15]) was in the range of 0 to 80%.

With `O=C(Nc1ccc(F)c(NC(=O)C(F)(F)C(F)(F)F)c1F)c1cc(NC(=O)[C@H]2[C@H](c3ccc(Cl)c(Cl)c3)C2(Cl)Cl)ccc1Cl` [F1251, 2-Chloro-5-((1R,3R)-2,2-dichloro-3-(3,4-dichlorophenyl)cyclopropane-1-carboxamido)-N-(2,4-difluoro-3-(2,2,3,3,3-pentafluoropropanamido)phenyl)benzamide], the pest or weed control at 50 µg/cm2 in test [1] (setting [12]) and in test [2] (setting [13]) was 50 to 100% each time. Further, the YFM result in test [3] (setting [14]) is given as “A (80–100)”. Further, in test [4] (setting [15]), the pest or weed control at 200 µg/mL is 0 to 80%.

For `O=C(Nc1ccc(F)c(NC(=O)C2CCCC2)c1F)c1cc(NC(=O)[C@H]2[C@H](c3ccc(F)c(C(F)(F)F)c3)C2(Cl)Cl)ccc1Cl` [F1643, 2-Chloro-N-(3-(cyclopentanecarboxamido)-2,4-difluorophenyl)-5-((1R,3R)-2,2-dichloro-3-(4-fluoro-3-(trifluoromethyl)phenyl)cyclopropane-1-carboxamido)benzamide], the pest or weed control at 50 µg/cm2 in test [1] (setting [5]) and in test [2] (setting [6]) was 50 to 100% throughout. In test [3] (setting [7]), the YFM entry was “B (More than 0 – Less than 80)”. In test [4] (setting [8]), the pest or weed control at 200 µg/mL lay in the range of 0 to 80%.

Turning to `O=C(NCC(F)(F)F)c1cc(NC(=O)[C@H]2[C@H](c3ccc(F)c(Cl)c3F)C2(Cl)Cl)ccc1Cl` (relative stereo) [F2011, trans-2-Chloro-5-(2,2-dichloro-3-(3-chloro-2,4-difluorophenyl)cyclopropane-1-carboxamido)-N-(2,2,2-trifluoroethyl)benzamide], the pest or weed control at 50 µg/cm2 in test [1] (setting [9]) and in test [2] (setting [10]) was 50 to 100% each time. For the same molecule, the YFM rating entry in test [3] (Yellow Fever Mosquito) is given as “A (80–100)”. Also, the pest or weed control at 200 µg/mL in test [4] (setting [11]) lay in the range of 0 to 80%.

As to `O=C(Nc1ccc(F)cc1F)c1cc(NC(=O)[C@H]2[C@H](c3ccc(S(F)(F)(F)(F)F)cc3)C2(Cl)Cl)ccc1Cl` (relative stereo) [F1089, trans-2-Chloro-5-(2,2-dichloro-3-(4-(pentafluoro-λ^6-sulfanyl)phenyl)cyclopropane-1-carboxamido)-N-(2,4-difluorophenyl)benzamide], the pest or weed control at 50 µg/cm2 in test [1] (setting [12]) and in test [2] (setting [13]) was 50 to 100% each time. Also, in test [3] (setting [14]), the YFM entry was “A (80–100)”. Further, in test [4] (setting [15]), the pest or weed control at 200 µg/mL is 0 to 80%.

The values are drawn from patent publication US20250228239A1, “MOLECULES HAVING PESTICIDAL UTILITY, AND INTERMEDIATES, COMPOSITIONS, AND PROCESSES, RELATED THERETO” (priority 2024, published 2025).
